Measured values: patent publication US11638425B2, “Agent for inducing stress tolerance in plants” (Menicon Co. Ltd., priority 2017, dated 2023)

How the values were obtained:
[1] = tested on: HSP17.6C-C1 of Arabidopsis thaliana; experiment: HSP expression test (HSP17.6C-C1 upstream region linked to GUS, 4-MU production); assay type: in vivo; design: key: 4-MU per plant divided by 4-MU of 50 μM geldanamycin positive control; conditions: soaked 6 hours at 22° C., positive control 50 μM geldanamycin
Description: First, a construct linked to β-glucuronidase (GUS) gene was introduced to 1 kb upstream of HSP17.6C-C1 of Arabidopsis thaliana (the family Brassicaceae) to prepare a mutant. Each naphthoquinone compound (shown in Table 1) dissolved in DMSO was diluted to 1 μM, 10 μM, 100 μM, or 1000 μM (final concentration) with deionized water to prepare a test solution of each example (final concentration of DMSO: 1.0% by volume). A 50 μM geldanamycin solution was similarly prepared as a positive control.
Next, two individuals of 7-day-old Arabidopsis thaliana mutants grown in a ⅕ MS medium were soaked in 300 μL of the test solution of each example or the positive control at 22° C. for 6 hours. The Arabidopsis thaliana was washed with deionized water, then soaked in 200 μL of a 4-methylumbelliferyl-β-D-glucuronide hydrate solution containing a surfactant, and incubated at 22° C. for 16 hours in the dark. The fluorescence intensity of the supernatant was measured, and the amount of 4-methylumbelliferone (4-MU) production per plant was calculated. The calculated value of 4-MU was divided by the value of 4-MU of the positive control to calculate a ratio vs. positive control. A higher numerical value means that HSP was expressed at a larger level.
Each shikonin compound or alkannin compound (shown in Table 2) dissolved in DMSO was diluted to 1 μM, 10 μM, 100 μM, or 1000 μM (final concentration) with deionized water to prepare a test solution of each example (final concentration of DMSO: 1.0% by volume). A 50 μM geldanamycin solution was similarly prepared as a positive control. The other test procedures were performed in the same way as in Test Example 1. The calculated value of 4-MU was divided by the value of 4-MU of the positive control to calculate a ratio vs. positive control. […]

Arabidopsis thaliana = experiment: Heat tolerance induction test based on chlorophyll concentration; assay type: in vivo; conditions: 50 μM in medium; heat-treated at 44° C. for 1 hour; 3 days culture after
Description: A ⅕ MS medium was prepared in a 6-well plate, and filter paper was placed thereon. 12 individuals of wild-type Arabidopsis thaliana were seeded per well and grown at 22° C. for 7 days in a plant incubator under 16-hour light and 8-hour dark conditions. Next, the naphthoquinone compound of each example (shown in Table 3) dissolved in DMSO was added to a ⅕ MS medium, and each medium (final concentration: 50 μM) was prepared in a 6-well plate (final concentration of DMSO: 1.0% by volume). A medium containing 1.0% by volume of DMSO was used as a control.
The Arabidopsis thaliana grown for 7 days in the 6-well plate was transplanted, together with the filter paper, to the medium containing the compound and cultured for 1 day in a plant incubator. The plate was placed in a plastic bag and heat-treated at 44° C. for 1 hour in a water bath. After the heat treatment, culture was performed for 3 days in a plant incubator. The leaves of 4 Arabidopsis thaliana individuals were cut out, and chlorophyll was extracted with 300 μL of ethanol. The absorbance of each extract was measured at 649 nm and 665 nm, and the chlorophyll concentration (mg/L) was calculated. A higher chlorophyll concentration means that heat tolerance is better.
The shikonin compound of each example (shown in Table 4) dissolved in DMSO was added to a ⅕ MS medium, and each medium (final concentration: 50 μM) was prepared in a 6-well plate (final concentration of DMSO: 1.0% by volume). A medium containing 1% by volume of DMSO was used as a control. The other test procedures were performed in the same way as in Test Example 3.
The Lithospermi radix extract used was Shikonix Liquid (BG) (trade name, manufactured by Ichimaru Pharcos Co., Ltd.) containing a Lithospermum erythrorhizon root extract. The Shikonix Liquid contained, as major components, shikonin compounds such as acetylshikonin, β-hydroxyisovalerylshikonin, and isobutyrylshikonin. The Shikonix Liquid also contained, as additional minor components, α-methyl-n-butylshikonin, β,β-dimethylacrylshikonin, isovalerylshikonin, and shikonin.
The Shikonix Liquid (BG) was added at a dilution ratio of 150-fold to a ⅕ MS medium. The same amount of water was added as a control. ThermoZyme (manufactured by Fujimikogyo Co., Ltd.) was added at a dilution ratio of 150-fold as a positive control (Reference Example). The other test procedures were performed in the same way as in Test Example 3.

sprouted alfalfa = experiment: Spindly growth suppression test of seedling; assay type: in vivo, Medicago sativa; conditions: 50 μL sprayed per individual, 10 days at 25° C.
Description: A spindly growth suppression test was conducted using sprouted alfalfa as a seedling and naphthoquinone compounds as quinone compounds. First, just-sprouted alfalfa (Medicago sativa of the family Leguminosae) was transplanted to a plastic cup containing vermiculite. Each naphthoquinone compound (shown in Table 5) dissolved in DMSO was diluted to 100 μM or 1000 μM (final concentration) with deionized water to prepare a test solution of each example (final concentration of DMSO: 1.0% by volume). An aqueous solution containing 1.0% by volume of DMSO was used as a test solution of a control. 50 μL of the test solution was sprayed per alfalfa individual. Then, cultivation was performed for 10 days in an incubator of 25° C., followed by hypocotyl length measurement.

maize [2] = experiment: Drought tolerance improvement test of maize; assay type: in vivo; conditions: 10 μM, 2 mL/cell; 19 days without water, counted 5 days after water addition
Description: Four parts each involving 9 cells (3×3) were cut out of a 72-cell tray. Seedling soil was placed therein, and water was added. 4 seeds of maize were seeded per cell. The temperature was set to 20° C. using a plant growth chamber, followed by cultivation under 16-hour light and 8-hour dark conditions. After budding, each naphthoquinone compound dissolved in DMSO was diluted to 10 μM (final concentration) with deionized water to prepare a test solution of each example (final concentration of DMSO: 1.0% by volume). Each test solution was sprayed to leaf surface in one of the cell trays. The volume of the test solution sprayed was set to 2 mL/cell. The same volume of water was sprayed to the other cell tray and used as a control. After the spraying, cultivation was continued without the addition of water. 19 days after the spraying, water was added to the soil. 5 days after the water addition, the number of maize survivors was counted and divided by the initial number of growing plants to calculate a survival rate (%).

maize [3] = experiment: Salt tolerance improvement test of maize; assay type: in vivo; conditions: 10 μM, 2 mL/cell; 1.0% NaCl five times every two days; fresh weight
Description: (§1) Two parts each involving 9 cells (3×3) were cut out of a 72-cell tray. Seedling soil was placed therein, and water was added. 4 seeds of maize were seeded per cell. The temperature was set to 20° C. using a plant growth chamber, followed by cultivation under 16-hour light and 8-hour dark conditions. After budding, Shikonix Liquid (BG) (manufactured by Ichimaru Pharcos Co., Ltd.) was diluted 500-fold and sprayed as the Lithospermi radix extract to leaf surface in one of the cell trays. The volume of the Shikonix Liquid sprayed was set to 2 mL/cell. The same volume of water was sprayed to the other cell tray and used as a control. Two days later, a 1.0% NaCl solution was prepared and absorbed from the underside of each cell tray. The NaCl solution treatment was performed five times every two days. The above-ground parts were cut off, and their fresh weights were measured. An average value (g/plant) was calculated.
as §1, with “Four parts” for “Two parts”, “budding, each naphthoquinone compound dissolved in DMSO” for “budding, Shikonix Liquid (BG) (manufactured by Ichimaru Pharcos Co., Ltd.)”, “diluted to 10 μM (final concentration) with deionized water to prepare a test solution of each example (final concentration of DMSO: 1.0% by volume). Each test solution was” for “diluted 500-fold and”, “sprayed” for “sprayed as the Lithospermi radix extract”, “the test solution” for “the Shikonix Liquid”

Structure (SMILES)	Ratio of 4-MU amount vs. positive control ([1]; 1 μM)	Ratio of 4-MU amount vs. positive control ([1]; 10 μM)	Ratio of 4-MU amount vs. positive control ([1]; 100 μM)	Ratio of 4-MU amount vs. positive control ([1]; 1000 μM)	Chlorophyll concentration (Arabidopsis thaliana)	Hypocotyl length (sprouted alfalfa; 100 μM)	Hypocotyl length (sprouted alfalfa; 1000 μM)	Survival rate (maize [2])	Above-ground part weight (maize [3])
O=C1C=CC(=O)c2c(O)ccc(O)c21 [Example 5, 5,8-Dihydroxy-1,4-naphthoquinone]	0.48	2.49	1.96	0.78	6.66 mg/L	14.6 mm	15.2 mm	92%	0.653 g/plant
O=C1C(Cl)=C(Cl)C(=O)c2c(O)ccc(O)c21 [Example 7, 2,3-Dichloro-5,8-dihydroxy-1,4-naphthoquinone]	0.80	5.91	1.72	0.95	6.12 mg/L	18.1 mm	14.6 mm	88%	0.677 g/plant
